According to patent publication US20230251278A1, “ACQUISITION METHOD OF VALUE RELATING TO TRIGLYCERIDE METABOLIC CAPACITY, PRESENTATION METHOD OF DISEASE INFORMATION, PRESENTATION METHOD OF DISEASE DIFFERENTIATION INFORMATION, PRESENTATION METHOD OF THERAPY EFFICACY INFORMATION, PRESENTATION METHOD OF THERAPEUTIC EFFECT INFORMATION, TEST REAGENT …” (OSAKA UNIVERSITY, priority 2020, published 2023):

What was measured:
[1] = system: leucocytes (neutrophils, monocytes, lymphocytes); assay: Uptake and excretion of Alexa Fluor 680-BMPP by leucocytes of healthy individuals and primary TGCV patients (FACS); format: cell-based, human
Description: 5.5 ml of whole blood collected from healthy individuals and patients using the blood collection tube containing heparin was added with the leucocyte separating agent (HetaSep, Veritas Corporation) in an amount of one fifth of the whole blood, leucocytes were collected according to a manufacturer's instruction, and the cells were resuspended in 2.1 ml of DMEM medium without serum (hereinafter, DMEM serum-free medium). Alexa Fluor™ 680-BMPP uptake ability and Alexa Fluor™ 680-BMPP excretion ability of the leucocytes were measured using 400 μl each as described below.
40 μl of the Alexa Fluor™ 680-BMPP or 40 μl of the Alexa Fluor™ 680 was added to 400 μl of the cell resuspension so that a final concentration of the Alexa Fluor™ 680-BMPP or the Alexa Fluor™ 680 was 0.067 μM, and a reaction for uptake the fluorescence-labeled substance was performed by standing at room temperature for 30 minutes. A sample for measurement immediately after the uptake was added with BD FACS Lysing Solution immediately after the reaction to be hemolyzed and then, subjected to FACS. On the other hand, as for a sample for measurement of excretion, the Alexa Fluor™ 680-BMPP or the Alexa Fluor™ 680 was removed from the sample by centrifugation at room temperature, cells were resuspended in 500 μl of DMEM serum-free medium, and the cells were allowed to stand at 37° C. for 2 hours to be subjected to an excretion reaction of the taken Alexa Fluor™ 680-BMPP or Alexa Fluor™ 680, then BD FACS Lysing Solution was added, and the sample was subjected to FACS in the same manner as the sample immediately after the uptake. FACS analysis was performed in the same manner as described in the experimental example 2, and for each of neutrophils, monocytes, and lymphocytes, fluorescence intensity of the sample immediately after uptake was compared with fluorescence intensity of the sample for measurement of excretion.

[2] = system: leucocytes (neutrophils) of the case 1 patient; assay: Ability of leucocytes to excrete Alexa Fluor 680-BMPP before and after tricaprin treatment; format: in vivo, human
Description: Next, the abilities for taking up and for excreting the Alexa Fluor™ 680-BMPP were compared using whole blood collected from the patients in the case 1 described in the above 6-2. before and after the tricaprin treatment.
Preparation of the leucocyte and measurement of the abilities for taking up and for excreting the Alexa Fluor™ 680-BMPP using the leucocyte cells were performed according to the experimental examples.

[3] = system: leucocytes (neutrophils, monocytes, lymphocytes); assay: Uptake of fluorescence-labeled BMPP by leucocytes in whole blood (FACS); format: cell-based, human; conditions: monocytes and lymphocytes, whole blood of healthy individual, 0.0074, 0.022, 0.067, 0.2 μM, room temperature 30 minutes
Description: Each 200 μl of whole blood collected from a healthy individual using a blood collection tube containing heparin was used as a sample. As a fluorescent-labeled BMPP-added group, the Alexa Fluor™ 680-BMPP prepared in the experimental example 1 was added to the samples so that a final concentration of the Alexa Fluor™ 680-BMPP was 0.0074 μM, 0.022 μM, 0.067 μM, and 0.2 μM, respectively. As a negative control group, Alexa Fluor™ 680 NHS Ester hydrolysate (hereinafter, simply referred to as Alexa Fluor™ 680) was added to the samples so that a final concentration of the Alexa Fluor™ 680 was 0.0074 μM, 0.022 μM, 0.067 μM, and 0.2 μM, respectively. […]
After the uptake is completed, 2 ml of BD FACS Lysing Solution (BD Biosciences) was added to the sample, and the mixture was allowed to stand at room temperature for 30 minutes to hemolyze erythrocytes, and then leucocytes were collected as precipitates by centrifugation at room temperature at 1500 rpm for 30 minutes, and resuspended in PBS to prepare a sample for FACS analysis. The FACS analysis was performed by preparing gates containing lymphocytes, monocytes, or neutrophils in advance by dot plots of forward-scattered light and side-scattered light using leucocytes prepared in the same manner without adding the Alexa Fluor™ 680-BMPP, and measuring the number of cells until […] cells were counted in the gate. […]

[4] = system: leucocytes (neutrophils, monocytes, lymphocytes); assay: Influence of excretion time on Alexa Fluor 680-BMPP excretion amount (FACS); format: cell-based, human; conditions: leucocytes of two healthy individuals; 0.067 μM; 37° C.; histograms did not shift from 10 to 120 minutes
Description: 6 ml of each whole blood collected from two healthy individuals using the blood collection tube containing heparin was added with the HetaSep (Veritas Corporation) in an amount of one fifth of the whole blood, leucocytes were collected according to the manufacturer's instruction, and the cells were resuspended in 2.1 ml of the DMEM serum-free medium. Alexa Fluor™ 680-BMPP uptake ability and Alexa Fluor™ 680-BMPP excretion ability of the leucocytes were measured using 400 μl each as described below.
40 μl of the Alexa Fluor™ 680-BMPP was added to 400 μl of the cell resuspension so that a final concentration of the Alexa Fluor™ 680-BMPP was 0.067 μM, and a reaction for uptake the Alexa Fluor™ 680-BMPP was performed by standing at room temperature for 30 minutes. A sample for measurement immediately after the uptake was added with BD FACS Lysing Solution immediately after the reaction to be hemolyzed and then, subjected to FACS. […] FACS analysis was performed in the same manner as described in the experimental example 2, and for each of neutrophils, monocytes, and lymphocytes, fluorescence intensities at each excretion time were compared each other.

[5] = system: triglyceride deposit-type atherosclerosis of the coronary artery; assay: MCT dietary therapy: coronary artery CT evaluation of fat accumulated in coronary arteries; format: in vivo, human
Description: A person with genetic ATGL (Adipose triglyceride lipase) deficiency. Since it was confirmed that the patient was suffering from triglyceride deposit-type atherosclerosis by coronary CT inspection, MCT dietary therapy was started. The patient ingested 6 to 9 g of tricaprin as the MCT per 1 day, 3 times a day after meals for 50 days.
Before the start of the MCT dietary therapy and after 50 days from the start of the MCT dietary therapy, normal coronary artery CT was performed to acquire a three-dimensional DICOM image of the left anterior descending branch. The samples were resampled in 0.1 mm^3 of voxels and layer-by-layer coloring was performed based on intra-voxel CT values. Smoothing was performed between voxels. The layer-by-layer coloring was performed as follows.
Light gray: between −25 HU to 0 HU (fat content is high) Middle gray 0 HU to 40 HU (fat content is medium) Dark gray: 40 HU to 125 HU (no fat) (iii) Results
A person who has suffered from refractory angina pectoris for years. Even when a combination treatment of a plurality of antianginal drugs and statins or the like was performed, the angina pectoris was rather exacerbated. Since it was confirmed that the patient was suffering from triglyceride deposit-type atherosclerosis by coronary CT inspection, MCT dietary therapy was started. The patient ingested 1.5 g of tricaprin as the MCT per 1 day, 3 times a day after meals for 4 years.
Before the start of the MCT dietary therapy and after 4 years from the start of the MCT dietary therapy, normal coronary artery CT was performed, and the layer-by-layer coloring of the inside of the left anterior descending branch was performed in the same manner as described in the case 1.

Molecule	ability to excrete the Alexa Fluor 680-BMPP, primary TGCV patient versus healthy individuals ([1]; leucocytes, overall conclusion)	ability to excrete the Alexa Fluor 680-BMPP (leftward shift of fluorescence intensity) ([1]; lymphocytes of healthy individuals, 0.067 μM, excretion 37° C. 2 hours)	ability to excrete the Alexa Fluor 680-BMPP compared to healthy individuals ([1]; lymphocytes of primary TGCV patients, 0.067 μM, excretion 37° C. 2 hours)	ability to excrete the Alexa Fluor 680-BMPP (leftward shift of histogram) ([1]; neutrophils of healthy individuals, 0.067 μM, excretion 37° C. 2 hours)	ability to excrete the Alexa Fluor 680-BMPP compared to healthy individuals ([1]; neutrophils of primary TGCV patients, 0.067 μM, excretion 37° C. 2 hours)	ability for excreting the Alexa Fluor 680-BMPP compared to healthy individuals ([2]; leucocytes (neutrophils) of case 1 patient before the start of the treatment)	uptake amount of the Alexa Fluor 680-BMPP (shift of fluorescence intensity histogram) [3]	excretion time at which the taken Alexa Fluor 680-BMPP was sufficiently excreted (almost background) [4] [min]	ability for excreting the Alexa Fluor 680-BMPP in the patient after the treatment ([2]; case 1 patient leucocytes after tricaprin (MCT dietary therapy) treatment)	effect on triglyceride deposit-type atherosclerosis of the coronary artery (coronary CT) ([5]; case 1: genetic ATGL deficiency, 6 to 9 g per day, 50 days)	effect on triglyceride deposit-type atherosclerosis of the coronary artery (coronary CT) ([5]; case 2: refractory angina pectoris, 1.5 g per day, 4 years)	diameter of the blood flow site (coronary CT) ([5]; case 2, 1.5 g per day, 4 years)
15-phenyl-3-methylpentadenoic acid labeled with Alexa Fluor™ 680 [Alexa Fluor™ 680-BMPP]	lower	demonstrated	reduced	sufficiently demonstrated	clearly reduced	clearly reduced	concentration dependent increase	10	–	–	–	–
CCCCCCCCCC(=O)OCC(COC(=O)CCCCCCCCC)OC(=O)CCCCCCCCC [tricaprin]	–	–	–	–	–	–	–	–	restored to the same level as in healthy individuals	regression	regression	significantly increased
